Legend:
recombinant human VISTA = molecular target: T1, recombinant human VISTA (Homo sapiens, UniProt Q9H7M9); test: Human PBMC IFN-γ release assay in the presence of recombinant human VISTA; type: cell-based; details: 100 nM compound, plate-coated VISTA + anti-CD3, anti-CD28, 72 h, ELISA
T1 construct: Fc (Fc chimera); purchased R&D Systems 7126-B7
Experimental: Example 2: Rescue of Mouse Splenocyte Proliferation in the Presence of Recombinant VISTA
Vehicle: Milli Q water; RPMI 1640 (GIBCO, Cat #11875); Fetal Bovine Serum [Hyclone, Cat #SH30071.03]; Penicilin (10000 unit/ml)-Streptomycin (10,000 μg/ml) liquid (GIBCO, Cat #15140-122); MEM Sodium Pyruvate solution 100 mM (100×), Liquid (GIBCO, Cat #11360); Nonessential amino acid (GIBCO, Cat #11140); L-Glutamine (GIBCO, Cat #25030); Recombinant human VISTA (rhGi24 VISTA/B7-H5 Fc chimera (R&D systems, cat no: 7126-B7); Anti-h/m Gi24/VISTA/B7-H5 purified mouse monoclonal IgG2B (R&D systems, cat no: MAB7126); Mouse IgG2B isotype control (R&D Systems cat no: MAB 004); Anti human-CD3 antibody (eBiosciences-16-0039); Anti human-CD28 antibody (eBiosciences-16-0289); Histopaque (density-1.077 gm/ml) (SIGMA 1077); Trypan Blue solution (SIGMA-T8154); Hemacytometer (Bright line-SIGMA Z359629); FACS Buffer containing Phosphate Buffered Saline (PBS) pH 7.2; (HiMedia TS1006) with 0.1% Bovine Serum Albumin (BSA) (SIGMA A7050) and sodium azide (SIGMA 08591); 96-well format ELISA plates (Corning 3599); 96-well format ELISA plates (Corning 3361); BD FACS caliber (E6016); Centrifuge (Eppendorf 5810 R); Human IFN-γ Duo set ELISA kit (R&D Systems; cat no: DY-285).
96-well cell culture plates were pre-coated with recombinant human VISTA (2.5 μg/ml) and anti-human CD3 (2.5 μg/ml), and stored at 4° C. overnight. Anti-human VISTA and isotype control antibodies were either coated along with the VISTA or incubated for 30 min next day before addition of cells. On the next day, plates were washed with 1×PBS and then incubated with test compounds for 30 min. Isolated PBMC (0.1×10^6 cells/well) and anti-human CD28 antibodies (lug/ml) were added to the wells. The culture was further incubated for 72 h at 37° C. with 5% CO2. After 72 h of incubation the cell culture supernatants were collected after brief centrifugation at 200 g×5 min at 4° C. and processed for human IFN-γ measurement by ELISA following manufacturer's protocol (R&D Systems; DY-285).
In brief, 96-well ELISA plates were coated with 100 μl/well of capture antibody in coating buffer and incubated overnight at 4° C. Plates were washed five times with wash buffer and further blocked with 200 μl of 1× assay diluents for 1 hr at RT. Following wash step, 100 μl of cell culture supernatants were added to wells and further incubated for 2 hr at RT. Appropriate standards were also included. After wash step, plate was incubated for one hour with 100 μl/well of detection antibody. The wash step was repeated and the plate was incubated for 30 min with 100 μl/well of Avidin-HRP. The plate was washed four times with wash buffer and subsequently incubated for 15 min with 100 μl/well of substrate solution. 50 μl of stop solution was added to each well and the plate was read at 450 nm using Gen5 ver 2.05. Delta OD values were used for calculating the concentrations. The absorbance values were plotted against the standards and the concentration of IFN-γ was determined using GraphPad Prism software. Each experimental condition was carried out in triplicates.
The percent rescue of IFN-γ release of the selected compounds of present invention are set forth below wherein “A” refers to compounds having more than 70% rescue of IFN-γ release, “B” refers to compounds having rescue of IFN-γ release ranges from 50% to 69.9% and “C” refers to compounds having less than 50% rescue of IFN-γ release.

Recombinant mouse PD-L1 = molecular target: T2, Recombinant mouse PD-L1 (Mus musculus, UniProt Q9EP73); test: Rescue of mouse splenocyte proliferation in the presence of recombinant PD-L1 (CFSE proliferation assay); type: cell-based; details: 100 nM compound; anti-CD3/CD28 stimulated mouse splenocytes + PD-L1; 72 h; stimulated splenocytes = 100%; read-out: PDL1 (rescue of proliferation @ 100 nM)
T2 construct: Fc (Fc chimera); purchased R&D Systems 1019-B7-100
Experimental: Example 1: Rescue of Mouse Splenocyte Proliferation in the Presence of Recombinant PD-L1/PD-L2
Recombinant mouse PD-L1 (rm-PDL-1, cat no: 1019-B7-100; R&D Systems) were used as the source of PD-L1.
Mouse splenocytes harvested from 6-8 weeks old C57 BL6 mice; RPMI 1640 (GIBCO, Cat #11875); DMEM with high glucose (GIBCO, Cat #D6429); Fetal Bovine Serum [Hyclone, Cat #SH30071.03]; Penicillin (10000unit/mL)-Streptomycin (10,000 μg/mL) Liquid (GIBCO, Cat #15140-122); MEM Sodium Pyruvate solution 100 mM (100×), Liquid (GIBCO, Cat #11360); Nonessential amino acid (GIBCO, Cat #11140); L-Glutamine (GIBCO, Cat #25030); Anti-CD3 antibody (eBiosciences-16-0032); Anti-CD28 antibody (eBiosciences-16-0281); ACK lysis buffer (1mL) (GIBCO, Cat #-A10492); Histopaque (density-1.083 gm/mL) (SIGMA 10831); Trypan blue solution (SIGMA-T8154); 2 mL Norm Ject Luer Lock syringe-(Sigma 2014-12); 40 μm nylon cell strainer (BD FALCON 35230); Hemacytometer (Bright line-SIGMA Z359629); FACS Buffer (PBS/0.1% BSA): Phosphate Buffered Saline (PBS) pH 7.2 (HiMedia TS1006) with 0.1% Bovine Serum Albumin (BSA) (SIGMA A7050) and sodium azide (SIGMA 08591); 5 mM stock solution of CFSE: CFSE stock solution was prepared by diluting lyophilized CFSE with 180 μL of Dimethyl sulfoxide (DMSO C2H6SO, SIGMA-D-5879) and aliquoted in to tubes for further use. Working concentrations were titrated from 10 μM to 1 μM. (eBioscience-650850-85); 0.05% Trypsin and 0.02% EDTA (SIGMA 59417C); 96-well format ELISA plates (Corning CLS3390); BD FACS caliber (E6016);
Recombinant mouse B7-H1/PDL1 Fc Chimera, (rm-PD-L1 cat no: 1019-B7-100).
Splenocytes harvested in a 50 mL falcon tube by mashing mouse spleen in a 40 μm cell strainer were further treated with 1 mL ACK lysis buffer for 5 min at room temperature.
After washing with 9 mL of RPMI complete media, cells were re-suspended in 3 mL of 1×PBS in a 15 mL tube. 3 mL of Histopaque was added carefully to the bottom of the tube without disturbing overlaying splenocyte suspension. After centrifuging at 800×g for 20 min at room temperature, the opaque layer of splenocytes was collected carefully without disturbing/mixing the layers. Splenocytes were washed twice with cold 1×PBS followed by total cell counting using Trypan Blue exclusion method and used further for cell based assays.
Splenocytes were cultured in RPMI complete media (RPMI +10% fetal bovine serum+1 mM sodium pyruvate+10,000units/mL penicillin and 10,000 μg/mL streptomycin) and maintained in a CO2 incubator with 5% CO2 at 37° C.
CFSE is a dye that passively diffuses into cells and binds to intracellular proteins. 1×10^6 cells/mL of harvested splenocytes were treated with 5 μM of CFSE in pre-warmed 1×PBS/0.1% BSA solution for 10 min at 37° C. Excess CFSE was quenched using 5 volumes of ice-cold culture media to the cells and incubated on ice for 5 min. CFSE labelled splenocytes were further given three washes with ice cold complete RPMI media. CFSE labelled 1×10^5 splenocytes added to wells containing either MDA-MB231 cells (1×10^5 cells cultured in high glucose DMEM medium) or recombinant […] PDL-1 (100 ng/mL) and test compounds. Splenocytes were stimulated with anti-mouse CD3 and anti-mouse CD28 antibody (lug/mL each), and the culture was further incubated for 72 h at 37° C. with 5% CO2. Cells were harvested and washed thrice with ice cold FACS buffer and % proliferation was analysed by flow cytometry with 488 nm excitation and 521 nm emission filters.
Percent splenocyte proliferation was analysed using cell quest FACS program and percent rescue of splenocyte proliferation by compound was estimated after deduction of % background proliferation value and normalising to % stimulated splenocyte proliferation (positive control) as 100%.
Stimulated splenocytes: Splenocytes+anti-CD3/CD28 stimulation
Background proliferation: Splenocytes+anti-CD3/CD28+PD-L1
Compound proliferation: Splenocytes+anti-CD3/CD28+PD-L1+Compound […]

T1 sequence (Q9H7M9 with tags, fused parts or gaps limits assumed): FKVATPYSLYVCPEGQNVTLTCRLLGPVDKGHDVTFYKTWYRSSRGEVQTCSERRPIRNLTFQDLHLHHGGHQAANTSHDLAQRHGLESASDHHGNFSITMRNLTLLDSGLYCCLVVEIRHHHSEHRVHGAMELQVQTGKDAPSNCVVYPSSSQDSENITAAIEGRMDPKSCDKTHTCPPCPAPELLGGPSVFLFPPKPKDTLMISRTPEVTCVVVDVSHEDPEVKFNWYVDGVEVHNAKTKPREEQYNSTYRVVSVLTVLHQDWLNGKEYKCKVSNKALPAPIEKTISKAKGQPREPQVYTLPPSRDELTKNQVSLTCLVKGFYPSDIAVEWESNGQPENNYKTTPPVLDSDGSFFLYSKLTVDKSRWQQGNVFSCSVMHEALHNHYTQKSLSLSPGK
T2 sequence (Q9EP73 19-238 limits assumed): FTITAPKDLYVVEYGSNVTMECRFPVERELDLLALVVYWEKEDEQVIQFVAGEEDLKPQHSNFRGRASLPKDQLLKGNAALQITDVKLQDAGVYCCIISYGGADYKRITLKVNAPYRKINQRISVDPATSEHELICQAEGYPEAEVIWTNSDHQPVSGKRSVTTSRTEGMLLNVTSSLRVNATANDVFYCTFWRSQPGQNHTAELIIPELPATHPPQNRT

| activation at 0.1 µM (Recombinant mouse PD-L1) [%] | SMILES | VISTA (rescue of IFN γ release @ 100 nM) (recombinant human VISTA) |
| --- | --- | --- |
| 64 | CC(O)[C@H](NC(=O)N[C@@H](CC(N)=O)c1nc([C@H](N)CO)no1)C(=O)O (stereo partly shown) [Compound 21] | A (more than 70% rescue of IFN-γ release) |
| 83 | CC(O)[C@@H](NC(=O)N[C@H](CC(N)=O)c1nc([C@H](N)CO)no1)C(=O)O (stereo partly shown) [Compound 22] | A (more than 70% rescue of IFN-γ release) |
| 72 | CC(O)[C@@H](NC(=O)N[C@@H](CC(N)=O)c1nc([C@H](N)CO)no1)C(=O)O (stereo partly shown) [Compound 23] | A (more than 70% rescue of IFN-γ release) |
| 55 | CC(O)[C@H](NC(=O)N[C@H](CC(N)=O)c1nc([C@H](N)CO)no1)C(=O)O (stereo partly shown) [Compound 24] | A (more than 70% rescue of IFN-γ release) |

| SMILES | activation at 0.1 µM (Recombinant mouse PD-L1) [%] | VISTA (rescue of IFN γ release @ 100 nM) (recombinant human VISTA) |
| --- | --- | --- |
| CC(O)[C@H](NC(=O)N[C@@H](CC(N)=O)c1nc(C2(N)CCCCC2)no1)C(=O)O (stereo partly shown) [Compound 19] | 86 | B (rescue of IFN-γ release ranges from 50% to 69.9%) |
